According to US11369697B2, “Liposome nanoparticles for tumor magnetic resonance imaging” (UNITED KINGDOM RESEARCH AND INNOVATION, priority 2009, dated 2022):

Experiment: T1 relaxation of Gd lipids in aqueous solution (MRI efficacy)
Assay type: physicochemical
Conditions: 0.5 mM, 4.7 T
Protocol: In order to establish the relaxation properties of Gd.DOTA.DSA, MRI studies of the lipid in aqueous solution were performed and T1 values and relaxivity parameters generated in milliseconds. […] A standard T1 saturation recovery method (spin echo sequence) was used to determine T1 values (according to Eq. 1), where x is TR (time to repeat), and Si is the measured signal for a given TR. Si=S0(1−e^(−x/T^1^))
MRI Analysis of Gd.DOTA.DSA For T1 analysis, Gd.DOTA.DSA 4, Gd.DTPA.BSA, and controls of the metal free compound, and Magnevist (Schering A G, Germany) were added to water to give a final concentration of 0.5 mM. The solutions (200 μL) were placed in eppendorf tubes and T1 relaxation values measured on a 4.7 T Varian MR scanner at ambient temperature. For relaxivity measurements; gadolinium liposome formulations were prepared in order to obtain five different gadolinium concentrations between […] in 200 μL of distilled water and the molar relaxivity r1 (mM^−1 s^−1) determined. T1 values were obtained using saturation recovery experiments performed with a standard spin-echo sequence and a 2 mm single slice acquisition (TR=50, 100, 200, 300, 500, 700, 1200, 3000, 5000, 7000 ms, TE=15 ms), number of signal averages; 2, FOV; 70×70 mm^2, collected into a matrix of 256×128.

Question: With “Gadolinium (III) 2-{4,7-Bis-Carboxymethyl-10-[(N, N-Distearylamidomethyl-N′-Amido-Methyl]-1,4,7,10-Tetra-Azacyclododec-1-yl}-Acetic Acid [Gd.DOTA.DSA]” as the substance, how does the “T1 relaxation compared to Gd.DTPA.BSA lipid” value read?
Answer: Its value is “comparable, if slightly better”.

Question: What about the “efficacy compared to Magnevist and Gd.DTPA.BSA (T1 values)” value (lipid in aqueous solution, clinically relevant dose) of the same substance?
Answer: The value was “compare favourably”.
